Experimental data published in patent US12193994B2, “Combination of a cell therapy and a gamma secretase inhibitor” (Juno Therapeutics, Inc., priority 2017, dated 2025).

Legend:
[1] = system: OPM2 or RPMI-8226 target cells; assay: Cytolytic activity of anti-BCMA CAR-T cells co-cultured with target cells +/- LY3039478 (IncuCyte); format: cell-based, human
Description: In this study, to generate anti-BCMA CAR-expressing T cells, CD4+ and CD8+ T cells were isolated by immunoaffinity-based enrichment from leukapheresis samples from two healthy donor subjects and one myeloma patient. Isolated T cells were activated and transduced with a viral vector encoding an anti-BCMA CAR. The CAR contained an scFv antigen-binding domain specific for BCMA having a VH domain and a VL domain with amino acid sequences set forth in SEQ ID NOS: 24 and 25, respectively, a spacer, a spacer having an amino acid sequence set forth in SEQ ID NO:31, a CD28 transmembrane region, a 4-1BB costimulatory signaling region and a CD3-zeta derived intracellular signaling domain. The nucleic acid construct encoding the CAR also included a truncated receptor sequence for use as a transduction marker, separated from the CAR sequence by a self-cleaving T2A sequence.
Anti-BCMA CAR-T cells generated as described in this Example above were cultured at 37° C. with either OPM2 or RPMI-8226 target cells at an effector to target (E:T) ratio of 0.3:1. The target cells were labeled with NucLight Red (NLR), to permit tracking of target cells by microscopy. Cultures were incubated in the absence of LY3039478 or in the presence of LY3039478 at concentrations of 0.1 nM, 1 nM, 10 nM, 100 nM, 1000 nM, 10000 nM or 100000 nM (the range covering the estimated human pharmacokinetic range is shown by the boxes in FIGS. 3A-3D). As a control, target cells were incubated with LY3039478 but without culture with CAR-T cells. Cytolytic activity was assessed by measuring the loss of viable target cells after about 150 hours, as determined by red fluorescent signal (using the IncuCyte® Live Cell Analysis System, Essen Bioscience). The area under the curve for killing observed during the culture period (˜150 hours) was determined. Percent lysis (% killing) was determined by normalizing the AUC for killing to cultures incubated without the inhibitor.

[2] = system: OPM2 or RPMI-8226 target cells; assay: Cytokine production by anti-BCMA CAR-T cells co-cultured with target cells +/- LY3039478; format: cell-based, human; details: 24 hours co-culture, vs absence of LY3039478
Experimental: (§1) The production of cytokines by anti-BCMA CAR-T cells in the presence or absence of LY3039478 was assessed by monitoring cytokine levels in the supernatants of co-cultures of CAR-T cells with BCMA-expressing target cells. CAR-T cells generated as described in this Example above were cultured with either OPM2 or RPMI-8226 target cells in the absence of LY3039478 or in the presence of LY3039478 at concentrations of 0.1 nM, 1 nM, 10 nM, 100 nM, 1000 nM, 10000 nM or 100000 nM (the range covering the estimated human pharmacokinetic range is shown by the boxes in FIGS. 3A-3D). Culture supernatants were harvested after 24 hours, and IFNγ and IL-2 were measured from the culture supernatants.

[3] = system: OPM2 target cells; assay: Similar study: concentration dependence of cytokine production by anti-BCMA CAR-T cells; format: cell-based; details: Homo sapiens, OPM-2; OPM2, one exemplary donor, IFN-gamma (FIG. 3E); read-out: increasing cytokine production by anti-BCMA CAR-T cells, IC50
Experimental: as §1
A similar study was carried out to further assess the effects of different concentrations of LY3039478, including concentrations within the estimated Cmax/Cmin for the inhibitor, on the ability of anti-BCMA CAR-T cells generated as described in this Example 2 above to produce cytokines following co-culture with OPM2 target cells.

[4] = system: multiple myeloma tumor; assay: BCMA expression on tumors after oral LY3039478 in an alternative multiple myeloma tumor cell model; format: in vivo, mice; details: 0.1 mg/kg or 1 mg/kg, two oral administrations
Experimental: Specifically, NOD.Cg.PrkdescidIL2rgtm1 Wjl/SzJ (NSG) mice were injected subcutaneously (s.c.) with 1E+07 RPMI-8226 cells modified to express GFP and firefly luciferase (RPMI-8226 ffluc) and tumors were allowed to grow. […]
FIG. 6 depicts analysis of blood samples, taken at 0, 0.5, 2, 6, 18, 24, 36, and 48 hour post-administration, for plasma levels of the drug. […] Tumor cells at 2 hours, 24 hours or 48 hours after administration of LY3039478 or vehicle control in the study were assessed for surface expression of BCMA.

[5] = system: RPMI-8226, OPM2, or MM1.S; assay: Re-challenge of chronically stimulated anti-BCMA CAR+ T cells with target cells +/- LY3039478; format: cell-based, human
Experimental: The effect of a gamma secretase inhibitor compound, LY3039478, on the cytotoxicity of anti-BCMA CAR+ T cells after long-term CAR-specific stimulation was assessed. Anti-BCMA CAR+ T cell compositions, generated as described in Example 2 containing anti-BCMA CAR-expressing CD4+ and CD8+ T cells, were incubated with 50 μg/mL BCMA-Fc conjugated beads for 7 days, under conditions designed to functionally exhaust the CAR T cells.
The CAR-T cells then were re-challenged with antigen-expressing target cells in the presence or absence of LY3039478. […] To assess cytolytic activity, the target cells were labeled with NucLight Red (NLR) to permit tracking by fluorescent microscopy. Killing activity was assessed by measuring the loss of viable target cells over time, as determined by loss of fluorescent signal over time by kinetic fluorescence microscopy (using the INCUCYTE® Live Cell Analysis System, Essen Bioscience). Target fluorescence was monitored over time and was normalized to target cell count.
A killing index was determined as the inverse of the area under the curve (AUC) for target fluorescence over time, and was normalized relative to DMSO vehicle control. […]

[6] = system: BCMA on the surface of multiple myeloma cells; assay: BCMA surface expression on multiple myeloma cells in patients given oral LY3039478; format: in vivo, human; details: mean, three 25 mg oral doses
Experimental: Three human subjects having multiple myeloma were administered three 25 mg doses of the gamma secretase inhibitor (GSI) LY3039478 by mouth. The absolute B cell maturation antigen (BCMA) antibody binding capacity (ABC) on the surface of multiple myeloma cells was quantitated by flow cytometry performed on bone marrow aspirate specimens obtained from each of the patients prior to administration of the GSI, and immediately after the third oral GSI dose. A mean 66-fold increase in BCMA ABC was observed following GSI administration (FIG. 15A).

C[C@H](NC(=O)CCC(F)(F)F)C(=O)N[C@@H]1C(=O)N(CCO)c2ncccc2-c2ccccc21 [LY3039478, 4,4,4-trifluoro-N-[(1S)-2-[[(7S)-5-(2-hydroxyethyl)-6-oxo-7H-pyrido[2,3-d][3]benzazepin-7-yl]amino]-1-methyl-2-oxo-ethyl]butanamide]
cytolytic activity of anti-BCMA CAR T cells (% killing) ([1]; 0.1 nM to 100000 nM, E:T 0.3:1, about 150 hours, myeloma patient-derived CAR-T, OPM2 and RPMI-8226): increased the cytolytic activity | detrimental effects on CAR T cell function ([1]; 100 μM LY3039478): No detrimental effects | CAR-T function ([1]; CAR-T cells derived from the other donors): increase in CAR-T function | target survival ([1]; LY3039478 alone without CAR-T cells): No differences | production of IFN-gamma in supernatant [2]: increased | production of IL-2 in supernatant [2]: increased | IC50 [3]: 0.1 to 0.25 nM | BCMA expression on tumors [4]: Increased BCMA expression | function of chronically stimulated anti-BCMA CAR-expressing T cells to produce cytokines (TNF-alpha, IFN-gamma, IL-2) ([5]; 1 μM LY3039478, 24 hours, E:T 0.3:1 and 1:1): improved function | cytolytic activity of chronically stimulated anti-BCMA CAR+ T cells ([5]; 1 μM LY3039478 vs DMSO, E:T 0.3:1): improved cytolytic activity | increase in BCMA antibody binding capacity (ABC) following GSI administration ([6]; three subjects, bone marrow aspirate): 66 fold | percentage of plasma cells with measurable surface BCMA expression following the three oral doses ([6]; 35% (mean) before GSI): 98.4%
